Experimental data from patent US10597388B2, “Pyridazinone herbicides” (FMC CORPORATION, priority 2014, dated 2020).

Experiments:
Assay in all cases: Test D controlled growth environment herbicide test, pre- and postemergence
Assay type in all cases: in vivo
kochia (Kochia scoparia) = system: kochia (Kochia scoparia)
Excerpt: (§1) Seeds of plant species selected from bluegrass (annual bluegrass, Poa annua), blackgrass (Alopecurus myosuroides), Canada thistle (Cirsium arvense), canarygrass (Phalaris minor), chickweed (common chickweed, Stellaria media), geranium, cutleaf (cutleaf geranium, Geranium dissectum), galium (catchweed bedstraw, Galium aparine), bromegrass, downy (downy bromegrass, Bromus tectorum), field poppy (Papaver rhoeas), field violet (Viola arvensis), foxtail, green (green foxtail, Setaria viridis), deadnettle (henbit deadnettle, Lamium amplexicaule), ryegrass, Italian (Italian ryegrass, Lolium multiflorum), kochia (Kochia scoparia), lambsquarters (Chenopodium album), oilseed rape (Brassica napus), pigweed (Amaranthus retroflexus), chamomile (scentless chamomile, Matricaria inodora), Russian thistle (Salsola kali), speedwell (bird's-eye speedwell, Veronica persica), barley, spring (spring barley, Hordeum vulgare), wheat, spring (spring wheat, Triticum aestivum), buckwheat, wild (wild buckwheat, Polygonum convolvulus), mustard, wild (wild mustard, Sinapis arvensis), oat, wild (wild oat, Avena fatua), radish, wild (wild radish, Raphanus raphanistrum), windgrass (Apera spica-venti), barley, winter (winter barley, Hordeum vulgare), and wheat, winter (winter wheat, Triticum aestivum) were planted into a silt loam soil and treated preemergence with test chemicals formulated in a non-phytotoxic solvent mixture which included a surfactant.
(§2) At the same time, these species were planted in pots containing Redi-Earth® planting medium (Scotts Company, 14111 Scottslawn Road, Marysville, Ohio 43041) comprising spaghnum peat moss, vermiculite, wetting agent and starter nutrients and treated with postemergence applications of the test chemicals formulated in the same manner. Plants ranged in height from 2 to 18 cm (1- to 4-leaf stage). Treated plants and controls were maintained in a controlled growth environment for 14 to 21 d after which time all species were compared to controls and visually evaluated. Plant response ratings, summarized in Table D, are based on a scale of 0 to 100 where 0 is no effect and 100 is complete control. A dash (-) response means no test result.

[1] = system: deadnettle (henbit deadnettle, Lamium amplexicaule)
Excerpt: as §1, §2

[2] = system: wheat, winter (winter wheat, Triticum aestivum)
Excerpt: as §1, §2

[3] = system: pigweed (Amaranthus retroflexus)
Excerpt: as §1, §2

[4] = system: ryegrass, Italian (Italian ryegrass, Lolium multiflorum)
Excerpt: as §1, §2

[5] = system: galium (catchweed bedstraw, Galium aparine)
Excerpt: as §1, §2

[6] = system: foxtail, green (green foxtail, Setaria viridis)
Excerpt: as §1, §2

[7] = system: speedwell (bird's-eye speedwell, Veronica persica)
Excerpt: as §1, §2

[8] = system: barley, winter (winter barley, Hordeum vulgare)
Excerpt: as §1, §2

[9] = system: windgrass (Apera spica-venti)
Excerpt: as §1, §2

[10] = system: chickweed (common chickweed, Stellaria media)
Excerpt: as §1, §2

[11] = system: lambsquarters (Chenopodium album)
Excerpt: as §1, §2

[12] = system: blackgrass (Alopecurus myosuroides)
Excerpt: as §1, §2

[13] = Postemergence, 31 g ai/ha, scale 0 to 100 (0 no effect, 100 complete control)
[14] = Postemergence, 125 g ai/ha, visual rating on scale 0 (no effect) to 100 (complete control), 14 to 21 d
[15] = Postemergence, 250 g ai/ha, scale 0 to 100 (0 no effect, 100 complete control)
[16] = Preemergence, 62 g ai/ha, scale 0 to 100 (0 no effect, 100 complete control)
[17] = Preemergence, 125 g ai/ha, scale 0 to 100 (0 no effect, 100 complete control)
[18] = Preemergence, 250 g ai/ha, scale 0 to 100 (0 no effect, 100 complete control)
[19] = postemergence, 62 g ai/ha, scale 0 to 100, 0 no effect, 100 complete control

Cc1ccc2ccc(C)c(-c3c(O)c(C)nn(C)c3=O)c2c1 [Compound 60]
15: Plant response rating (scale of 0 to 100), Kochia (kochia (Kochia scoparia); Preemergence, 31 g ai/ha) | Plant response rating (scale of 0 to 100), Barley, Winter ([8]; Preemergence, 31 g ai/ha)
85: Plant response rating, Kochia (kochia (Kochia scoparia); [19]) | Plant response rating, Deadnettle [1, 17] | Plant response rating, Galium [5, 16] | Speedwell plant response rating [7, 13] | Plant response rating (scale of 0 to 100), Windgrass ([9]; Preemergence, 31 g ai/ha) | Plant response rating, Windgrass [9, 19] | Chickweed plant response rating [10, 13] | Plant response rating, Blackgrass [12, 14]
55: Plant response rating, Wheat, Winter [2, 17] | Plant response rating, Wheat, Winter [2, 18]
90: Plant response rating, Kochia (kochia (Kochia scoparia); [14]) | Plant response rating, Deadnettle [1, 16] | Plant response rating, Ryegrass, Italian [4, 14] | Plant response rating, Ryegrass, Italian [4, 19] | Plant response rating, Speedwell [7, 14] | Plant response rating, Windgrass [9, 14] | Plant response rating, Windgrass [9, 16] | Plant response rating, Blackgrass [12, 15] | Plant response rating (scale of 0 to 100), Blackgrass ([12]; Preemergence, 31 g ai/ha)
75: Plant response rating, Kochia (kochia (Kochia scoparia); [18]) | Plant response rating, Deadnettle [1, 19] | Pigweed plant response rating [3, 13] | Plant response rating (scale of 0 to 100), Galium ([5]; Preemergence, 31 g ai/ha) | Plant response rating, Foxtail, Green [6, 15] | Blackgrass plant response rating [12, 13]
20: Plant response rating, Kochia (kochia (Kochia scoparia); [16])
65: Plant response rating, Foxtail, Green [6, 14] | Plant response rating, Barley, Winter [8, 18]
10: Plant response rating (scale of 0 to 100), Wheat, Winter ([2]; Preemergence, 31 g ai/ha) | Barley, Winter plant response rating [8, 13]
35: Plant response rating (scale of 0 to 100), Deadnettle ([1]; Preemergence, 31 g ai/ha) | Plant response rating, Wheat, Winter [2, 14] | Plant response rating, Wheat, Winter [2, 16] | Foxtail, Green plant response rating [6, 13]
50: Plant response rating, Barley, Winter [8, 15] | Plant response rating, Barley, Winter [8, 17]
80: Ryegrass, Italian plant response rating [4, 13] | Plant response rating, Foxtail, Green [6, 16] | Plant response rating, Speedwell [7, 19] | Windgrass plant response rating [9, 13] | Lambsquarters plant response rating [11, 13] | Plant response rating, Lambsquarters [11, 14] | Plant response rating, Lambsquarters [11, 15] | Plant response rating, Lambsquarters [11, 19] | Plant response rating, Blackgrass [12, 19]
40: Plant response rating, Wheat, Winter [2, 15] | Plant response rating, Foxtail, Green [6, 19] | Plant response rating, Barley, Winter [8, 14]
70: Kochia plant response rating (kochia (Kochia scoparia); [13]) | Deadnettle plant response rating [1, 13] | Plant response rating (scale of 0 to 100), Foxtail, Green ([6]; Preemergence, 31 g ai/ha)
25: Wheat, Winter plant response rating [2, 13] | Plant response rating, Barley, Winter [8, 19]
95: Plant response rating, Kochia (kochia (Kochia scoparia); [15]) | Plant response rating, Deadnettle [1, 14] | Plant response rating, Deadnettle [1, 15] | Plant response rating, Pigweed [3, 19] | Plant response rating, Ryegrass, Italian [4, 15] | Plant response rating, Galium [5, 17] | Plant response rating, Foxtail, Green [6, 17] | Plant response rating (scale of 0 to 100), Chickweed ([10]; Preemergence, 31 g ai/ha) | Plant response rating, Blackgrass [12, 16]
98: Plant response rating, Windgrass [9, 15]
60: Plant response rating, Kochia (kochia (Kochia scoparia); [17])
30: Plant response rating, Wheat, Winter [2, 19] | Plant response rating, Barley, Winter [8, 16]
100: Plant response rating, Deadnettle [1, 18] | Plant response rating, Pigweed [3, 14] | Plant response rating, Pigweed [3, 15] | Plant response rating (scale of 0 to 100), Pigweed ([3]; Preemergence, 31 g ai/ha) | Plant response rating, Pigweed [3, 16] | Plant response rating, Pigweed [3, 17] | Plant response rating, Pigweed [3, 18] | Plant response rating (scale of 0 to 100), Ryegrass, Italian ([4]; Preemergence, 31 g ai/ha) | Plant response rating, Ryegrass, Italian [4, 16] | Plant response rating, Ryegrass, Italian [4, 17] | Plant response rating, Ryegrass, Italian [4, 18] | Galium plant response rating [5, 13] | Plant response rating, Galium [5, 14] | Plant response rating, Galium [5, 15] | Plant response rating, Galium [5, 18] | Plant response rating, Galium [5, 19] | Plant response rating, Foxtail, Green [6, 18] | Plant response rating, Speedwell [7, 15] | Plant response rating (scale of 0 to 100), Speedwell ([7]; Preemergence, 31 g ai/ha) | Plant response rating, Speedwell [7, 16] | Plant response rating, Speedwell [7, 17] | Plant response rating, Speedwell [7, 18] | Plant response rating, Windgrass [9, 17] | Plant response rating, Windgrass [9, 18] | Plant response rating, Chickweed [10, 14] | Plant response rating, Chickweed [10, 15] | Plant response rating, Chickweed [10, 16] | Plant response rating, Chickweed [10, 17] | Plant response rating, Chickweed [10, 18] | Plant response rating, Chickweed [10, 19] | Plant response rating (scale of 0 to 100), Lambsquarters ([11]; Preemergence, 31 g ai/ha) | Plant response rating, Lambsquarters [11, 16] | Plant response rating, Lambsquarters [11, 17] | Plant response rating, Lambsquarters [11, 18] | Plant response rating, Blackgrass [12, 17] | Plant response rating, Blackgrass [12, 18]
